Laboratory results as given in the supplement of paper PMC10307832.

How the values were obtained:
Assay in all cases: relative viability (nuclei count vs DMSO), 5 days (fraction); higher = more cells survive
[1] = compound: C/C(=N\NC(=S)N1CCC1)/C2=CC=CC=N2 + CC(=O)Nc1cccc(-n2c(=O)n(C3CC3)c(=O)c3c(Nc4ccc(I)cc4F)n(C)c(=O)c(C)c32)c1 [Trametinib] (partner 0.02 µM)
Method in brief: (§1)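 One day after seeding in 1536-well plates, lung cancer cell lines were dosed by pin tool. Dosing was either single-drug or a fixed anchor-drug dose plus five library-drug doses (not always all listed) in √10 steps. After 5 days, nuclei were stained in one fix-and-stain step and counted on 4× images, and relative viability is the nuclei count of treated wells over that of vehicle wells, given as the median of duplicate plates.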

[2] = compound: C/C(=N\NC(=S)N1CCC1)/C2=CC=CC=N2 + CC1(C)CCC(c2ccc(Cl)cc2)=C(CN2CCN(c3ccc(C(=O)NS(=O)(=O)c4ccc(N[C@H](CCN5CCOCC5)CSc5ccccc5)c(S(=O)(=O)C(F)(F)F)c4)cc3)CC2)C1 [Navitoclax] (partner 0.5 µM)
Method in brief: as §1

[3] = compound: C/C(=N\NC(=S)N1CCC1)/C2=CC=CC=N2 + N=C(N)NC(=N)NCCc1ccccc1 [Phenformin] (partner 250 µM)
Method in brief: as §1

[4] = compound: C/C(=N\NC(=S)N1CCC1)/C2=CC=CC=N2 + Nc1nc2[nH]cc(CCc3ccc(C(=O)N[C@@H](CCC(=O)O)C(=O)O)cc3)c2c(=O)[nH]1 [Pemetrexed] (partner 0.2 µM)
Method in brief: as §1

Cell Line	relative viability ([1]; first compound 0.05 µM)	relative viability ([1]; first compound 0.1581 µM)	relative viability ([1]; first compound 0.5 µM)	relative viability ([1]; first compound 1.581 µM)	relative viability ([1]; first compound 5 µM)	relative viability ([2]; first compound 0.05 µM)	relative viability ([2]; first compound 0.1581 µM)	relative viability ([2]; first compound 0.5 µM)	relative viability ([2]; first compound 1.581 µM)	relative viability ([2]; first compound 5 µM)	relative viability ([3]; first compound 0.05 µM)	relative viability ([3]; first compound 0.1581 µM)	relative viability ([3]; first compound 0.5 µM)	relative viability ([3]; first compound 1.581 µM)	relative viability ([3]; first compound 5 µM)	relative viability ([4]; first compound 0.05 µM)	relative viability ([4]; first compound 0.1581 µM)	relative viability ([4]; first compound 0.5 µM)	relative viability ([4]; first compound 1.581 µM)	relative viability ([4]; first compound 5 µM)
NCI-H2087	0.104	0.123	0.11	0.108	0.0815	0.248	0.212	0.185	0.146	0.18	0.141	0.156	0.166	0.0953	0.0819	0.16	0.181	0.214	0.163	0.119
LU99A	0.186	0.405	0.183	0.152	0.146	0.196	0.181	0.139	0.154	0.187	0.163	0.189	0.145	0.143	0.178	0.192	0.158	0.164	0.146	0.162
NCI-H1355	0.22	0.191	0.136	0.176	0.17	0.181	0.718	0.129	0.143	0.165	0.266	0.295	0.251	0.263	0.2	0.195	0.18	0.177	0.189	0.152
NCI-H520	0.101	0.129	0.118	0.123	0.159	0.19	0.212	0.301	0.151	0.166	0.149	0.255	0.168	0.143	0.251	0.128	0.16	0.145	0.122	0.146
NCI-H661	0.208	0.263	0.26	0.224	0.213	–	–	–	–	–	0.262	0.269	0.254	0.211	0.231	0.286	0.278	0.244	0.229	0.223
NCI-H650	0.17	0.207	0.204	0.169	0.151	–	–	–	–	–	0.23	0.277	0.208	0.247	0.189	0.179	0.245	0.201	0.166	0.131
NCI-H647	0.0951	0.0887	0.127	0.114	0.13	0.133	0.129	0.117	0.123	0.116	0.0392	0.0555	0.125	0.0761	0.0797	0.136	0.111	0.114	0.0953	0.0773
201T	0.575	0.713	0.327	0.407	0.283	0.891	1.18	0.708	0.516	0.453	0.362	0.355	0.343	0.311	0.247	0.292	0.315	0.289	0.294	0.286
NCI-H838	0.156	0.167	0.157	0.11	0.136	0.259	0.258	0.229	0.192	0.225	0.163	0.171	0.175	0.123	0.139	0.223	0.186	0.185	0.19	0.186
SW 1573	0.0975	0.0992	0.119	0.0672	0.0635	0.138	0.0732	0.0916	0.0833	0.0479	0.0755	0.0616	0.0965	0.0629	0.0599	0.0863	0.149	0.169	0.0609	0.0817
PC-14	0.0651	0.0788	0.0488	0.039	0.0546	0.0569	0.0561	0.0604	0.061	0.0618	0.0972	0.134	0.095	0.0228	0.0472	0.0492	0.0611	0.0691	0.0506	0.0521
LK-2	0.174	0.187	0.184	0.146	0.159	0.121	0.146	0.108	0.112	0.126	0.119	0.185	0.13	0.085	0.151	0.0705	0.123	0.0631	0.1	0.0756
COR-L23	0.111	0.133	0.124	0.107	0.114	0.108	0.111	0.0885	0.077	0.0905	0.104	0.102	0.104	0.0877	0.0862	0.149	0.169	0.163	0.105	0.123
NCI-H1944	0.32	0.392	0.144	0.147	0.152	0.684	0.988	0.392	0.189	0.18	0.119	0.144	0.127	0.145	0.146	0.212	0.15	0.133	0.112	0.124
LCLC-103H	0.303	0.622	0.324	0.357	0.256	–	–	–	–	–	0.17	0.172	0.21	0.129	0.187	0.321	0.301	0.328	0.253	0.325
ABC-1	–	–	–	–	–	–	–	–	–	–	0.196	0.203	0.222	0.202	0.14	–	–	–	–	–
NCI-H358	0.1	0.0969	0.116	0.0973	0.097	–	–	–	–	–	0.0917	0.112	0.101	0.0719	0.107	0.114	0.107	0.109	0.0963	0.12
NCI-H1563	–	–	–	–	–	–	–	–	–	–	0.374	0.472	0.491	0.506	0.611	0.525	0.571	0.505	0.41	0.47
EBC-1	–	–	–	–	–	0.135	0.146	0.136	0.134	0.174	–	–	–	–	–	–	–	–	–	–
Calu-6	–	–	–	–	–	0.106	0.122	0.123	0.141	0.126	–	–	–	–	–	–	–	–	–	–
